Experimental data as given in patent US20060035897A1, “Trifluoromethyl substituted benzamides as kinase inhibitors” (priority 2004, published 2006).

SMILES | melting point
Cc1ccc(NC(=O)c2cccc(C(F)(F)F)c2)cc1-c1ccc2ccncc2c1 [Example 1, N-(3-Isoquinolin-7-yl-4-methyl-phenyl)-3-trifluoromethyl-benzamide] | 148 to 152 °C
Cc1ccc(C(=O)Nc2cccc(C(F)(F)F)c2)cc1-c1ccc2ccncc2c1 [Example 3, 3-Isoquinolin-7-yl-4-methyl-N-(3-trifluoromethyl-phenyl)-benzamide] | 157 to 159 °C
Cc1ccc(NC(=O)c2cccc(C(F)(F)F)c2)cc1-c1ccc2ncsc2c1 [Example 5, N-(3-Benzothiazol-6-yl-4-methyl-phenyl)-3-trifluoromethyl-benzamide] | 94 to 96 °C
Cc1ccc(C(=O)Nc2cccc(C(F)(F)F)c2)cc1-c1ccc2ncsc2c1 [Example 6, 3-Benzothiazol-6-yl-4-methyl-N-(3-trifluoromethyl-phenyl)-benzamide] | 102 to 104 °C
Cc1ccc(NC(=O)c2cccc(C(F)(F)F)c2)cc1-c1ccc2cnncc2c1 [Example 7, N-(4-Methyl-3-phthalazin-6-yl-phenyl)-3-trifluoromethyl-benzamide] | 205 to 206 °C
Cc1ccc(C(=O)Nc2cccc(C(F)(F)F)c2)cc1-c1ccc2cnncc2c1 [Example 8, 4-Methyl-3-phthalazin-6-yl-N-(3-trifluoromethyl-phenyl)-benzamide] | 270 to 272 °C
Cc1ccc(NC(=O)c2cccc(C(F)(F)F)c2)cc1-c1ccc2scnc2c1 [Example 9, N-(3-Benzothiazol-5-yl-4-methyl-phenyl)-3-trifluoromethyl-benzamide] | 90 to 93 °C
Cc1ccc(C(=O)Nc2cccc(C(F)(F)F)c2)cc1-c1ccc2scnc2c1 [Example 10, 3-Benzothiazol-5-yl-4-methyl-N-(3-trifluoromethylphenyl)benzamide] | 200 to 202 °C

Now from value to compound:

melting point | SMILES
204 to 208 °C | Cc1ccc(NC(=O)c2ccc(CN3CCN(C)CC3)c(C(F)(F)F)c2)cc1-c1ccc2cnncc2c1 [Example 15, N-(4-Methyl-3-phthalazin-6-yl-phenyl)-4-(4-methyl-piperazin-1-ylmethyl)-3-trifluoromethyl-benzamide]
175 to 177 °C | Cc1ccc(NC(=O)c2ccc(CN3CCCCC3)c(C(F)(F)F)c2)cc1-c1ccc2cnncc2c1 [Example 17, N-(4-Methyl-3-phthalazin-6-yl-phenyl)-4-piperidin-1-ylmethyl-3-trifluoromethyl-benzamide]
240 to 241 °C | Cc1ccc(NC(=O)c2ccc(CN(C)C)c(C(F)(F)F)c2)cc1-c1ccc2cnncc2c1 [Example 19, 4-Dimethylaminomethyl-N-(4-methyl-3-phthalazin-6-yl-phenyl)-3-trifluoromethyl-benzamide]
236 to 238 °C | Cc1ccc(NC(=O)c2ccc(CN3CCOCC3)c(C(F)(F)F)c2)cc1-c1ccc2cnncc2c1 [Example 20, N-(4-Methyl-3-phthalazin-6-yl-phenyl)-4-morpholin-4-ylmethyl-3-trifluoromethyl-benzamide]
247 to 249 °C | Cc1ccc(C(=O)Nc2ccc(CN3CCCCC3)c(C(F)(F)F)c2)cc1-c1ccc2cnncc2c1 [Example 22, 4-Methyl-3-phthalazin-6-yl-N-(4-piperidin-1-ylmethyl-3-trifluoromethyl-phenyl)-benzamide]
284 to 287 °C | Cc1ccc(C(=O)Nc2ccc(CN3CCOCC3)c(C(F)(F)F)c2)cc1-c1ccc2cnncc2c1 [Example 23, 4-Methyl-N-(4-morpholin-4-ylmethyl-3-trifluoromethyl-phenyl)-3-phthalazin-6-yl-benzamide]
251 to 254 °C | Cc1ccc(C(=O)Nc2ccc(CN(C)C)c(C(F)(F)F)c2)cc1-c1ccc2cnncc2c1 [Example 24, N-(4-Dimethylaminomethyl-3-trifluoromethyl-Phenyl)-4-methyl-3-phthalazin-6-yl-benzamide]
246 to 250 °C | Cc1ccc(C(=O)Nc2ccc(CN3CCCC3)c(C(F)(F)F)c2)cc1-c1ccc2cnncc2c1 [Example 25, 4-Methyl-3-phthalazin-6-yl-N-(4-pyrrolidin-1-ylmethyl-3-trifluoromethyl-phenyl)-benzamide]
